Measured values as given in US20260262643A1, “HERBICIDAL BENZOXAZINES” (FMC CORPORATION, priority 2022, published 2026).

What was measured:
[1] = tested on: barnyardgrass; assay: Test C preemergence; assay type: in vivo, Echinochloa crusgalli; conditions: 0 to 100 scale (0 no effect, 100 complete control); for Plant response rating, Barnyardgrass: Preemergence, 500 g ai/ha, visual rating after 10 days; for Barnyardgrass plant response rating: preemergence, 125 g ai/ha
Outline: (§1)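 Test material, in non-phytotoxic solvent with surfactant, was sprayed on the soil directly after seeding (preemergence) or on young plants of 2–10 cm with one to two leaves (postemergence). Greenhouse, 10 days; 0–100 visual control scale.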

[2] = tested on: blackgrass; assay: Test C preemergence; assay type: in vivo, Alopecurus myosuroides; conditions: 0 to 100 scale (0 no effect, 100 complete control); for Plant response rating, Blackgrass: Preemergence, 500 g ai/ha, visual rating after 10 days; for Blackgrass plant response rating: Test C, preemergence, 125 g ai/ha
Outline: as §1

[3] = tested on: corn; assay: Test C preemergence; assay type: in vivo, Zea mays; conditions: 0 to 100 scale (0 no effect, 100 complete control); for Plant response rating, Corn: Preemergence, 500 g ai/ha, visual rating after 10 days; for Corn plant response rating: Test C, preemergence, 125 g ai/ha
Outline: as §1

[4] = tested on: green foxtail; assay: Test C preemergence; assay type: in vivo, Setaria viridis; conditions: 0 to 100 scale (0 no effect, 100 complete control); for Plant response rating, Foxtail, Green: Preemergence, 500 g ai/ha, visual rating after 10 days; for Foxtail, Green plant response rating: Test C, preemergence, 125 g ai/ha
Outline: as §1

[5] = tested on: kochia; assay: Test C preemergence; assay type: in vivo, Bassia scoparia; conditions: 0 to 100 scale (0 no effect, 100 complete control); for Plant response rating, Kochia: Preemergence, 500 g ai/ha, visual rating after 10 days; for Kochia plant response rating: Test C, preemergence, 125 g ai/ha
Outline: as §1

[6] = tested on: oat, wild; assay: Test C preemergence; assay type: in vivo, Avena fatua; conditions: 0 to 100 scale (0 no effect, 100 complete control); for Plant response rating, Oat, Wild: Preemergence, 500 g ai/ha, visual rating after 10 days; for Oat, Wild plant response rating: Test C, preemergence, 125 g ai/ha
Outline: as §1

[7] = tested on: pigweed, palmer; assay: Test C preemergence; assay type: in vivo, Amaranthus palmeri; conditions: 0 to 100 scale (0 no effect, 100 complete control); for Plant response rating, Pigweed, Palmer: Preemergence, 500 g ai/ha, visual rating after 10 days; for Pigweed, Palmer plant response rating: Test C, preemergence, 125 g ai/ha
Outline: as §1

[8] = tested on: ragweed; assay: Test C preemergence; assay type: in vivo, Ambrosia artemisiifolia; conditions: 0 to 100 scale (0 no effect, 100 complete control); for Plant response rating, Ragweed: Preemergence, 500 g ai/ha, visual rating after 10 days; for Ragweed plant response rating: Test C, preemergence, 125 g ai/ha
Outline: as §1

[9] = tested on: ryegrass, Italian; assay: Test C preemergence; assay type: in vivo, Lolium multiflorum; conditions: 0 to 100 scale (0 no effect, 100 complete control); for Plant response rating, Ryegrass, Italian: Preemergence, 500 g ai/ha, visual rating after 10 days; for Ryegrass, Italian plant response rating: Test C, preemergence, 125 g ai/ha
Outline: as §1

[10] = tested on: soybean; assay: Test C preemergence; assay type: in vivo, Glycine max; conditions: 0 to 100 scale (0 no effect, 100 complete control); for Plant response rating, Soybean: Preemergence, 500 g ai/ha, visual rating after 10 days; for Soybean plant response rating: Test C, preemergence, 125 g ai/ha
Outline: as §1

[11] = tested on: wheat; assay: Test C preemergence; assay type: in vivo, Triticum aestivum; conditions: 0 to 100 scale (0 no effect, 100 complete control); for Plant response rating, Wheat: Preemergence, 500 g ai/ha, visual rating after 10 days; for Wheat plant response rating: Test C, preemergence, 125 g ai/ha
Outline: as §1

[12] = tested on: barnyardgrass; assay: Test C postemergence; assay type: in vivo, Echinochloa crusgalli; conditions: 10 days
Outline: as §1

[13] = tested on: blackgrass; assay: Test C postemergence; assay type: in vivo, Alopecurus myosuroides; conditions: 10 days
Outline: as §1

[14] = tested on: corn; assay: Test C postemergence; assay type: in vivo, Zea mays; conditions: 10 days
Outline: as §1

[15] = tested on: green foxtail; assay: Test C postemergence; assay type: in vivo, Setaria viridis; conditions: 10 days
Outline: as §1

[16] = tested on: kochia; assay: Test C postemergence; assay type: in vivo, Bassia scoparia; conditions: 10 days
Outline: as §1

[17] = tested on: oat, wild; assay: Test C postemergence; assay type: in vivo, Avena fatua; conditions: 10 days
Outline: as §1

[18] = tested on: pigweed, palmer; assay: Test C postemergence; assay type: in vivo, Amaranthus palmeri; conditions: 10 days
Outline: as §1

[19] = tested on: ragweed; assay: Test C postemergence; assay type: in vivo, Ambrosia artemisiifolia; conditions: 10 days
Outline: as §1

[20] = tested on: ryegrass, Italian; assay: Test C postemergence; assay type: in vivo, Lolium multiflorum; conditions: 10 days
Outline: as §1

[21] = tested on: soybean; assay: Test C postemergence; assay type: in vivo, Glycine max; conditions: 10 days
Outline: as §1

[22] = tested on: wheat; assay: Test C postemergence; assay type: in vivo, Triticum aestivum; conditions: 10 days
Outline: as §1

[23] = tested on: galium; assay: Test C postemergence; assay type: in vivo, Galium aparine; conditions: 10 days
Outline: as §1

[24] = tested on: horseweed; assay: Test C postemergence; assay type: in vivo, Erigeron canadensis; conditions: 10 days
Outline: as §1

[25] = tested on: barnyardgrass; assay: Test D flooded paddy test; assay type: in vivo, Echinochloa crus-galli; conditions: 250 g ai/ha, applied to paddy water, visual rating after 13 to 14 days, scale 0 to 100 (0 no effect, 100 complete control)
Outline: (§2)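 Seedlings reached the 2-leaf stage, then pots were flooded to 3 cm over the soil surface. Compound was applied into the water, depth was maintained, and plants stayed in the greenhouse 13 to 14 days before visual scoring (0–100) relative to controls.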

[26] = tested on: ducksalad; assay: Test D flooded paddy test; assay type: in vivo, Heteranthera limosa; conditions: 250 g ai/ha, applied to paddy water, visual rating after 13 to 14 days, scale 0 to 100 (0 no effect, 100 complete control)
Outline: as §2

[27] = tested on: rice; assay: Test D flooded paddy test; assay type: in vivo, Oryza sativa; conditions: 250 g ai/ha, applied to paddy water, visual rating after 13 to 14 days, scale 0 to 100 (0 no effect, 100 complete control)
Outline: as §2

[28] = tested on: sedge, umbrella; assay: Test D flooded paddy test; assay type: in vivo, Cyperus difformis; conditions: 250 g ai/ha, applied to paddy water, visual rating after 13 to 14 days, scale 0 to 100 (0 no effect, 100 complete control)
Outline: as §2

[29] = 125 g ai/ha, postemergence, 0 to 100 scale, 0 no effect, 100 complete control
[30] = Postemergence, 500 g ai/ha, visual 0 to 100 scale (0 no effect, 100 complete control)

## COc1ccc(-n2cncn2)cc1C(=O)N1C[C@H](C)Oc2ccccc21 [Compound 228]
[1]
  Plant response rating, Barnyardgrass: 100
[1]; Test C
  Barnyardgrass plant response rating: 90
[2]
  Plant response rating, Blackgrass: 90
  Blackgrass plant response rating: 80
[3]
  Plant response rating, Corn: 60
  Corn plant response rating: 10
[4]
  Plant response rating, Foxtail, Green: 100
  Foxtail, Green plant response rating: 100
[5]
  Plant response rating, Kochia: 60
  Kochia plant response rating: 0
[6]
  Plant response rating, Oat, Wild: 90
  Oat, Wild plant response rating: 40
[7]
  Plant response rating, Pigweed, Palmer: 100
  Pigweed, Palmer plant response rating: 100
[8]
  Plant response rating, Ragweed: 50
  Ragweed plant response rating: 40
[9]
  Plant response rating, Ryegrass, Italian: 90
  Ryegrass, Italian plant response rating: 90
[10]
  Plant response rating, Soybean: 90
  Soybean plant response rating: 70
[11]
  Plant response rating, Wheat: 30
  Wheat plant response rating: 20
[12]; [29]
  Plant response rating, Barnyardgrass: 60
[12]; [30]
  Plant response rating, Barnyardgrass: 90
[13]; [29]
  Plant response rating, Blackgrass: 80
[13]; [30]
  Plant response rating, Blackgrass: 90
[14]; [29]
  Plant response rating, Corn: 40
[14]; [30]
  Plant response rating, Corn: 80
[15]; [29]
  Plant response rating, Foxtail, Green: 30
[15]; [30]
  Plant response rating, Foxtail, Green: 90
[16]; [29]
  Plant response rating, Kochia: 50
[16]; [30]
  Plant response rating, Kochia: 70
[17]; [29]
  Plant response rating, Oat, Wild: 30
[17]; [30]
  Plant response rating, Oat, Wild: 80
[18]; [29]
  Plant response rating, Pigweed, Palmer: 70
[18]; [30]
  Plant response rating, Pigweed, Palmer: 90
[19]; [29]
  Plant response rating, Ragweed: 10
[19]; [30]
  Plant response rating, Ragweed: 30
[20]; [29]
  Plant response rating, Ryegrass, Italian: 100
[20]; [30]
  Plant response rating, Ryegrass, Italian: 100
[21]; [29]
  Plant response rating, Soybean: 100
[21]; [30]
  Plant response rating, Soybean: 100
[22]; [29]
  Plant response rating, Wheat: 50
[22]; [30]
  Plant response rating, Wheat: 90
[23]; [29]
  Plant response rating, Galium: 100
[23]; [30]
  Plant response rating, Galium: 100
[24]; [29]
  Plant response rating, Horseweed: 10
[24]; [30]
  Plant response rating, Horseweed: 30
[25]
  Plant response rating, Barnyardgrass (Flood): 15
[26]
  Plant response rating, Ducksalad (Flood): 80
[27]
  Plant response rating, Rice (Flood): 25
[28]
  Plant response rating, Sedge, Umbrella (Flood): 95

## CCc1ncn(-c2cc3c(c(C(=O)N4C[C@H](C)Oc5c(Cl)cccc54)c2)OCCO3)n1 [Compound 155]
[1]
  Barnyardgrass plant response rating: 90
  Plant response rating, Barnyardgrass: 100
[2]
  Plant response rating, Blackgrass: 90
  Blackgrass plant response rating: 50
[3]
  Plant response rating, Corn: 50
  Corn plant response rating: 10
[4]
  Plant response rating, Foxtail, Green: 100
  Foxtail, Green plant response rating: 100
[5]
  Plant response rating, Kochia: 90
  Kochia plant response rating: 80
[6]
  Plant response rating, Oat, Wild: 50
  Oat, Wild plant response rating: 30
[7]
  Plant response rating, Pigweed, Palmer: 100
  Pigweed, Palmer plant response rating: 100
[8]
  Plant response rating, Ragweed: 100
  Ragweed plant response rating: 60
[9]
  Plant response rating, Ryegrass, Italian: 90
  Ryegrass, Italian plant response rating: 70
[10]
  Plant response rating, Soybean: 100
  Soybean plant response rating: 70
[11]
  Plant response rating, Wheat: 70
  Wheat plant response rating: 20
[12]; [29]
  Plant response rating, Barnyardgrass: 90
[12]; [30]
  Plant response rating, Barnyardgrass: 90
[13]; [29]
  Plant response rating, Blackgrass: 90
[13]; [30]
  Plant response rating, Blackgrass: 100
[14]; [29]
  Plant response rating, Corn: 40
[14]; [30]
  Plant response rating, Corn: 90
[15]; [29]
  Plant response rating, Foxtail, Green: 90
[15]; [30]
  Plant response rating, Foxtail, Green: 90
[16]; [29]
  Plant response rating, Kochia: 80
[16]; [30]
  Plant response rating, Kochia: 90
[17]; [29]
  Plant response rating, Oat, Wild: 20
[17]; [30]
  Plant response rating, Oat, Wild: 50
[18]; [29]
  Plant response rating, Pigweed, Palmer: 90
[18]; [30]
  Plant response rating, Pigweed, Palmer: 100
[19]; [29]
  Plant response rating, Ragweed: 100
[19]; [30]
  Plant response rating, Ragweed: 100
[20]; [29]
  Plant response rating, Ryegrass, Italian: 70
[20]; [30]
  Plant response rating, Ryegrass, Italian: 100
[21]; [29]
  Plant response rating, Soybean: 100
[21]; [30]
  Plant response rating, Soybean: 100
[22]; [29]
  Plant response rating, Wheat: 60
[22]; [30]
  Plant response rating, Wheat: 80
[23]; [29]
  Plant response rating, Galium: 100
[23]; [30]
  Plant response rating, Galium: 100
[24]; [29]
  Plant response rating, Horseweed: 70
[24]; [30]
  Plant response rating, Horseweed: 70
[25]
  Plant response rating, Barnyardgrass (Flood): 20
[26]
  Plant response rating, Ducksalad (Flood): 60
[27]
  Plant response rating, Rice (Flood): 15
[28]
  Plant response rating, Sedge, Umbrella (Flood): 98
